Measurements from ChEMBL document CHEMBL6103598, “One-Pot Synthesis of Novel Tetrasubstituted α-Aminophosphonates Derived from α-Methylphosphoserine and In Vivo Evaluation as Anti-Inflammatory Agents” (J Med Chem, 2025).
The source made the active and inactive calls. The calls are words filed in the database; no cut-off is given here.

How the values were obtained:
Mus musculus [1] = assay: Antiinflammatory activity against TPA-induced ear edema in female CD1 mouse model assessed as reduction in ear edema administered topically incubated for 4 hrs measured per ear; assay type: functional, organism-based
Mus musculus [2] = assay: Antiinflammatory activity against TPA-induced ear edema in female CD1 mouse model assessed as reduction in ear edema by measuring maximum efficacy at 0.25 to 1.25 mg measured per ear incubated for 4 hrs administered topically relative to control; assay type: functional; settings: CD1, topical, dose 0.25-1.25 mg
Mus musculus [3] = assay: Antiinflammatory activity against TPA-induced ear edema in female CD1 mouse model assessed as reduction in ear edema by measuring effective dose measured per ear incubated for 4 hrs administered topically; assay type: functional
Mus musculus [4] = assay: Potency index, ratio of Indomethacin ED50 to test compound ED50 for antiinflammatory activity against TPA-induced ear edema in female CD1 mouse model assessed as reduction in ear edema by measuring effective dose measured per ear incubated for 4 hrs administered topically; assay type: functional
Mus musculus [5] = assay: Antiinflammatory activity against CFA-induced paw edema in female CD1 mouse model assessed as reduction in paw swelling by measuring AUC at 10 mg/kg, po preincubated with compound for 30 mins followed by CFA stimulation and measured after 2 to 6 hrs relative to control; assay type: functional; set-up: scale not given: the % may be the effect or the level left; settings: time 2.5-6.5 hrs
Mus musculus [6] = assay: Antiinflammatory activity against CFA-induced paw edema in female CD1 mouse model assessed as reduction in paw swelling at 10 mg/kg, po preincubated with CFA followed by compound addition and measured after 25 to 28 hrs relative to control; assay type: functional; set-up: scale not given: the % may be the effect or the level left; settings: time 25-28 hrs
[7] = Octanol/water partition coefficient, logP of compound by shake flask method; assay type: physicochemical
Mus musculus [8] = assay: Antiinflammatory activity against CFA-induced paw edema in female CD1 mouse model assessed as reduction in paw swelling at 10 mg/kg, po preincubated with compound for 30 mins followed by CFA stimulation and measured after 2 to 6 hrs; assay type: functional, organism-based; settings: time 2.5-6.5 hrs
Mus musculus [9] = assay: Antiinflammatory activity against CFA-induced paw edema in female CD1 mouse model assessed as reduction in paw swelling at 10 mg/kg, po preincubated with compound for 30 mins followed by CFA stimulation and measured after 24 hrs; assay type: functional, organism-based; settings: time 24.5 hrs
Mus musculus [10] = assay: Antiinflammatory activity against TPA-induced ear edema in female CD1 mouse model assessed as decrease in NLR value at 1 mg measured per ear administered topically incubated for 4 hrs by microscopic analysis relative to control; assay type: functional; set-up: scale not given: the % may be the effect or the level left
Mus musculus [11] = assay: Antiinflammatory activity against TPA-induced ear edema in female CD1 mouse model assessed as decrease in NLR value at 5.7 mg measured per ear administered topically incubated for 4 hrs by microscopic analysis relative to control; assay type: functional; set-up: scale not given: the % may be the effect or the level left
Mus musculus [12] = assay: Antiinflammatory activity against TPA-induced ear edema in female CD1 mouse model assessed as decrease in NLR value at 3 mg measured per ear administered topically incubated for 4 hrs by microscopic analysis relative to control; assay type: functional; set-up: scale not given: the % may be the effect or the level left

| Structure (SMILES) | logP [7] | Activity (Mus musculus [1]) | Emax (Mus musculus [2]) [%] | ED50 (Mus musculus [3]) [mg] | Ratio ED50 (Mus musculus [4]) | Activity (Mus musculus [5]) [%] | Activity (Mus musculus [6]) [%] | Activity (Mus musculus [8]) | Activity (Mus musculus [9]) | Activity (Mus musculus [10]) [%] | Activity (Mus musculus [11]) [%] | Activity (Mus musculus [12]) [%] |
| --- | --- | --- | --- | --- | --- | --- | --- | --- | --- | --- | --- | --- |
| COP(=O)(OC)C(C)(COC(=O)c1ccccc1)NCc1ccccc1 (stereo not drawn) | 4.2 | Dose-dependent-effect | 83.3 | 0.49 | 1.1 | 47.8 | 21.7 | Active | inactive | – | – | – |
| COc1ccc2c(c1)c(CC(=O)O)c(C)n2C(=O)c1ccc(Cl)cc1 [INDOMETHACIN] | 3.99 | – | 89.3 | 0.54 | – | 58.7 | 36.5 | Active | inactive | 59.3 | – | – |
| COc1ccc2cc([C@H](C)C(=O)O)ccc2c1 [NAPROXEN] | – | Dose-dependent-effect | 90.6 | 0.13 | – | 55.4 | 39.8 | Active | inactive | 57.1 | – | – |
| COc1ccc2cc([C@H](C)C(=O)OCC(C)(NCc3ccccc3)P(=O)(OC)OC)ccc2c1 (stereo partly drawn) | 4.5 | Dose-dependent-effect | 84.8 | 0.53 | 1 | 47.8 | 21.7 | Active | inactive | – | – | – |

The next lines start with results.

| logP [7] | Structure (SMILES) | Activity (Mus musculus [1]) | Emax (Mus musculus [2]) [%] | ED50 (Mus musculus [3]) [mg] | Ratio ED50 (Mus musculus [4]) | Activity (Mus musculus [5]) [%] | Activity (Mus musculus [6]) [%] | Activity (Mus musculus [8]) | Activity (Mus musculus [9]) | Activity (Mus musculus [10]) [%] | Activity (Mus musculus [11]) [%] | Activity (Mus musculus [12]) [%] |
| --- | --- | --- | --- | --- | --- | --- | --- | --- | --- | --- | --- | --- |
| 3.3 | CCC(=O)OCC(C)(NCc1ccccc1)P(=O)(OC)OC (stereo not drawn) | Dose-dependent-effect | 90.1 | 0.48 | 1.1 | 47.8 | 21.7 | Active | inactive | – | 48 | – |
| 4.4 | COP(=O)(OC)C(C)(COC(=O)c1ccccc1)N[C@@H](C)c1ccccc1 (stereo partly drawn) | Dose-dependent-effect | 91.8 | 0.46 | 1.2 | 47.8 | 21.7 | Active | inactive | – | – | 64.7 |
| 4.8 | COc1ccc2cc([C@H](C)C(=O)OCC(C)(N[C@@H](C)c3ccccc3)P(=O)(OC)OC)ccc2c1 (stereo partly drawn) | Dose-dependent-effect | 93.9 | 0.26 | 2.1 | 47.8 | 21.7 | Active | inactive | – | 46.7 | – |
| 3.5 | CCC(=O)OCC(C)(N[C@@H](C)c1ccccc1)P(=O)(OC)OC (stereo partly drawn) | Dose-dependent-effect | 85.9 | 0.66 | 0.8 | 47.8 | 21.7 | Active | inactive | – | – | – |
